In PubChem BioAssay AID1963846 (Molecular Pharmacology Branch, DTP, NCI, 2024):

Tested on: 454973-116-R2-J3-PDC complex spheroid viability
Assay: Anticancer human tumor 454973-116-R2-J3-PDC patient-derived pancreatic carcinoma cell line growth inhibition [POLQ]
Settings: for IC50: curve of first compound; for viability, T/C: stronger effect = lower value
Method in brief: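 Complex spheroid viability model combining PDC tumour cells with endothelial (HUVEC) and MSC stromal cells. Novobiocin, ART-558 or RP6685 were tested singly and in combination with standard and investigational anticancer drugs. Each was titrated in half-log steps from near clinical Cmax, or from 10 microM where Cmax was unknown.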

[1] = second compound 0.0316 µM, first compound 0.0316 µM
[2] = second compound 0.0316 µM, first compound 0.1 µM
[3] = second compound 0.0316 µM, first compound 0.316 µM
[4] = second compound 0.0316 µM, first compound 1 µM
[5] = second compound 0.0316 µM, first compound 3.16 µM
[6] = second compound 0.0316 µM, first compound 10 µM
[7] = second compound 0.1 µM, first compound 0.0316 µM
[8] = second compound 0.1 µM, first compound 0.1 µM
[9] = second compound 0.1 µM, first compound 0.316 µM
[10] = second compound 0.1 µM, first compound 1 µM
[11] = second compound 0.1 µM, first compound 3.16 µM
[12] = second compound 0.1 µM, first compound 10 µM
[13] = second compound 0.316 µM, first compound 0.0316 µM
[14] = second compound 0.316 µM, first compound 0.1 µM
[15] = second compound 0.316 µM, first compound 0.316 µM
[16] = second compound 0.316 µM, first compound 1 µM
[17] = second compound 0.316 µM, first compound 3.16 µM
[18] = second compound 0.316 µM, first compound 10 µM
[19] = second compound 1 µM, first compound 0.0316 µM
[20] = second compound 1 µM, first compound 0.1 µM
[21] = second compound 1 µM, first compound 0.316 µM
[22] = second compound 1 µM, first compound 1 µM
[23] = second compound 1 µM, first compound 3.16 µM
[24] = second compound 1 µM, first compound 10 µM
[25] = second compound 3.16 µM, first compound 0.0316 µM
[26] = second compound 3.16 µM, first compound 0.1 µM
[27] = second compound 3.16 µM, first compound 0.316 µM
[28] = second compound 3.16 µM, first compound 1 µM
[29] = second compound 3.16 µM, first compound 3.16 µM
[30] = second compound 3.16 µM, first compound 10 µM
[31] = second compound 10 µM, first compound 0.0316 µM
[32] = second compound 10 µM, first compound 0.1 µM
[33] = second compound 10 µM, first compound 0.316 µM
[34] = second compound 10 µM, first compound 1 µM
[35] = second compound 10 µM, first compound 3.16 µM
[36] = second compound 10 µM, first compound 10 µM
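Note: spheroids exposed to drugs for seven days before measurement.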
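Throughout, for viability, T/C: percent viability relative to DMSO vehicle control wells taken as 100%.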

C#Cc1c(F)ccc2cc(O)cc(-c3ncc4c(N5CC6CCC(C5)N6)nc(OCC56CCCN5CC(F)C6)nc4c3F)c12 (stereo not given) + COC1C(OC(N)=O)C(O)C(Oc2ccc3c(O)c(NC(=O)c4ccc(O)c(CC=C(C)C)c4)c(=O)oc3c2C)OC1(C)C
IC50 (second compound 0.0316 µM): 0.108 µM
IC50 (second compound 0.1 µM): 0.15 µM
IC50 (second compound 0.316 µM): 0.127 µM
IC50 (second compound 1 µM): 0.104 µM
IC50 (second compound 3.16 µM): 0.131 µM
IC50 (second compound 10 µM): 0.141 µM
viability, T/C [1]: 72.4%
viability, T/C [2]: 48.9%
viability, T/C [3]: 40%
viability, T/C [4]: 31.8%
viability, T/C [5]: 31.9%
viability, T/C [6]: 23.4%
viability, T/C [7]: 68.2%
viability, T/C [8]: 55.6%
viability, T/C [9]: 40.1%
viability, T/C [10]: 30.3%
viability, T/C [11]: 39.8%
viability, T/C [12]: 25.3%
viability, T/C [13]: 83.9%
viability, T/C [14]: 52.4%
viability, T/C [15]: 39.2%
viability, T/C [16]: 29.7%
viability, T/C [17]: 27.8%
viability, T/C [18]: 26.7%
viability, T/C [19]: 67.3%
viability, T/C [20]: 52.3%
viability, T/C [21]: 34.7%
viability, T/C [22]: 38.3%
viability, T/C [23]: 31.1%
viability, T/C [24]: 27.9%
viability, T/C [25]: 69.7%
viability, T/C [26]: 53.4%
viability, T/C [27]: 41%
viability, T/C [28]: 29.8%
viability, T/C [29]: 32.9%
viability, T/C [30]: 24.2%
viability, T/C [31]: 63%
viability, T/C [32]: 56.6%
viability, T/C [33]: 35%
viability, T/C [34]: 30.1%
viability, T/C [35]: 26.6%
viability, T/C [36]: 22.6%

C=CC(=O)N1CCN(c2nc(=O)n(-c3c(C)ccnc3C(C)C)c3nc(-c4c(O)cccc4F)c(F)cc23)C(C)C1 (stereo not given) + COC1C(OC(N)=O)C(O)C(Oc2ccc3c(O)c(NC(=O)c4ccc(O)c(CC=C(C)C)c4)c(=O)oc3c2C)OC1(C)C
IC50 (second compound 0.0316 µM): > 10 µM
IC50 (second compound 0.1 µM): > 10 µM
IC50 (second compound 0.316 µM): > 10 µM
IC50 (second compound 1 µM): > 10 µM
IC50 (second compound 3.16 µM): > 10 µM
IC50 (second compound 10 µM): > 10 µM
viability, T/C [1]: 108%
viability, T/C [2]: 106%
viability, T/C [3]: 97.8%
viability, T/C [4]: 111%
viability, T/C [5]: 114%
viability, T/C [6]: 106%
viability, T/C [7]: 108%
viability, T/C [8]: 110%
viability, T/C [9]: 105%
viability, T/C [10]: 113%
viability, T/C [11]: 111%
viability, T/C [12]: 108%
viability, T/C [13]: 102%
viability, T/C [14]: 107%
viability, T/C [15]: 103%
viability, T/C [16]: 113%
viability, T/C [17]: 113%
viability, T/C [18]: 108%
viability, T/C [19]: 113%
viability, T/C [20]: 108%
viability, T/C [21]: 105%
viability, T/C [22]: 114%
viability, T/C [23]: 104%
viability, T/C [24]: 103%
viability, T/C [25]: 110%
viability, T/C [26]: 101%
viability, T/C [27]: 105%
viability, T/C [28]: 97.9%
viability, T/C [29]: 111%
viability, T/C [30]: 102%
viability, T/C [31]: 101%
viability, T/C [32]: 104%
viability, T/C [33]: 99.8%
viability, T/C [34]: 105%
viability, T/C [35]: 110%
viability, T/C [36]: 103%

CCc1cc2c(N3CCc4c(cc(Cn5ccnc5)cc4-c4cn(C)nc4C(F)(F)F)C3=O)cc(C)nc2c(OC)n1 + COC1C(OC(N)=O)C(O)C(Oc2ccc3c(O)c(NC(=O)c4ccc(O)c(CC=C(C)C)c4)c(=O)oc3c2C)OC1(C)C
IC50 (second compound 0.0316 µM): > 10 µM
IC50 (second compound 0.1 µM): > 10 µM
IC50 (second compound 0.316 µM): > 10 µM
IC50 (second compound 1 µM): > 10 µM
IC50 (second compound 3.16 µM): > 10 µM
IC50 (second compound 10 µM): > 10 µM
viability, T/C [1]: 111%
viability, T/C [2]: 93.7%
viability, T/C [3]: 91.5%
viability, T/C [4]: 87.9%
viability, T/C [5]: 87.2%
viability, T/C [6]: 75.1%
viability, T/C [7]: 94.1%
viability, T/C [8]: 107%
viability, T/C [9]: 95.2%
viability, T/C [10]: 91.2%
viability, T/C [11]: 81%
viability, T/C [12]: 71%
viability, T/C [13]: 101%
viability, T/C [14]: 103%
viability, T/C [15]: 91.8%
viability, T/C [16]: 94.1%
viability, T/C [17]: 83.6%
viability, T/C [18]: 73.2%
viability, T/C [19]: 110%
viability, T/C [20]: 95%
viability, T/C [21]: 105%
viability, T/C [22]: 98%
viability, T/C [23]: 84.7%
viability, T/C [24]: 76.3%
viability, T/C [25]: 109%
viability, T/C [26]: 102%
viability, T/C [27]: 93.9%
viability, T/C [28]: 88.2%
viability, T/C [29]: 85.9%
viability, T/C [30]: 70.3%
viability, T/C [31]: 103%
viability, T/C [32]: 90.5%
viability, T/C [33]: 89.6%
viability, T/C [34]: 85.3%
viability, T/C [35]: 84%
viability, T/C [36]: 67.6%

CCc1cc2c(N3CCc4c(cc(Cn5ccnc5)cc4-c4cn(C)nc4C(F)(F)F)C3=O)ccnc2c(OC)n1 + COC1C(OC(N)=O)C(O)C(Oc2ccc3c(O)c(NC(=O)c4ccc(O)c(CC=C(C)C)c4)c(=O)oc3c2C)OC1(C)C
IC50 (second compound 0.0316 µM): > 10 µM
IC50 (second compound 0.1 µM): > 10 µM
IC50 (second compound 0.316 µM): > 10 µM
IC50 (second compound 1 µM): > 10 µM
IC50 (second compound 3.16 µM): > 10 µM
IC50 (second compound 10 µM): > 10 µM
viability, T/C [1]: 109%
viability, T/C [2]: 107%
viability, T/C [3]: 96.7%
viability, T/C [4]: 86.4%
viability, T/C [5]: 90.8%
viability, T/C [6]: 72.8%
viability, T/C [7]: 101%
viability, T/C [8]: 96%
viability, T/C [9]: 96.8%
viability, T/C [10]: 96.8%
viability, T/C [11]: 91.5%
viability, T/C [12]: 81.5%
viability, T/C [13]: 99.8%
viability, T/C [14]: 104%
viability, T/C [15]: 96.5%
viability, T/C [16]: 96.4%
viability, T/C [17]: 88.8%
viability, T/C [18]: 82.1%
viability, T/C [19]: 112%
viability, T/C [20]: 104%
viability, T/C [21]: 99%
viability, T/C [22]: 93.7%
viability, T/C [23]: 85.8%
viability, T/C [24]: 76.6%
viability, T/C [25]: 107%
viability, T/C [26]: 102%
viability, T/C [27]: 97.8%
viability, T/C [28]: 86.8%
viability, T/C [29]: 82.4%
viability, T/C [30]: 72.2%
viability, T/C [31]: 113%
viability, T/C [32]: 99%
viability, T/C [33]: 96%
viability, T/C [34]: 86.5%
viability, T/C [35]: 84%
viability, T/C [36]: 72.9%

COc1ccc([C@@H](O)c2cc(-c3ncnc4cc(N5CCOCC5)ccc34)c(F)cc2Cl)nn1 + COC1C(OC(N)=O)C(O)C(Oc2ccc3c(O)c(NC(=O)c4ccc(O)c(CC=C(C)C)c4)c(=O)oc3c2C)OC1(C)C
IC50 (second compound 0.0316 µM): 9.5 µM
IC50 (second compound 0.1 µM): > 10 µM
IC50 (second compound 0.316 µM): > 10 µM
IC50 (second compound 1 µM): > 10 µM
IC50 (second compound 3.16 µM): > 10 µM
IC50 (second compound 10 µM): > 10 µM
viability, T/C [1]: 97.9%
viability, T/C [2]: 99.5%
viability, T/C [3]: 99%
viability, T/C [4]: 94.4%
viability, T/C [5]: 75.2%
viability, T/C [6]: 48.8%
viability, T/C [7]: 104%
viability, T/C [8]: 106%
viability, T/C [9]: 96.7%
viability, T/C [10]: 98.2%
viability, T/C [11]: 73.2%
viability, T/C [12]: 52.5%
viability, T/C [13]: 112%
viability, T/C [14]: 107%
viability, T/C [15]: 98.3%
viability, T/C [16]: 95%
viability, T/C [17]: 71.7%
viability, T/C [18]: 51.3%
viability, T/C [19]: 113%
viability, T/C [20]: 102%
viability, T/C [21]: 115%
viability, T/C [22]: 103%
viability, T/C [23]: 65.6%
viability, T/C [24]: 51.4%
viability, T/C [25]: 112%
viability, T/C [26]: 107%
viability, T/C [27]: 98.8%
viability, T/C [28]: 88.3%
viability, T/C [29]: 78.8%
viability, T/C [30]: 54.2%
viability, T/C [31]: 116%
viability, T/C [32]: 93.3%
viability, T/C [33]: 93.3%
viability, T/C [34]: 83.5%
viability, T/C [35]: 76.3%
viability, T/C [36]: 50.6%
